# System: iPSC-derived cortical neurons
# Type: cell-based
# Settings: responders vs non-responders after 10 μM Bupropion
smiles,measurement,setting,value
"CC(NC(C)(C)C)C(=O)c1cccc(Cl)c1 (stereo not drawn) [Bupropion, 3-Chloro-N-tert-butyl-β-keto-α-methylphenethylamin]",logFC PARP6,NS,−0.681
same,logFC PCBP4,NS,−1.293
same,logFC PCDH10,NS,−1.015
same,logFC PCSK1N,NS,−1.46
same,logFC PDYN,NS,−1.613
same,logFC PGM2L1,NS,−1.008
same,logFC PHACTR3,NS,−1.439
same,logFC PID1,NS,−1.455
same,logFC PIK3R1,NS,−0.9783
same,logFC PITPNC1,NS,−0.8298
same,logFC PITPNM2,NS,−0.7259
same,logFC PKIA,NS,−1.194
same,logFC PLPPR2,NS,−0.974
same,logFC PNMA3,NS,−1.221
same,logFC PPEF1,NS,−1.59
same,logFC PPFIA2,NS,−1.898
same,logFC PPFIA3,NS,−0.735
same,logFC PPM1K,NS,−0.7077
same,logFC PPP1R13B,NS,−1.191
same,logFC PPP2R2B,NS,−1.116
same,logFC PPP2R2C,NS,−1.735
same,logFC PPP2R5B,NS,−1.051
same,logFC PRDM8,NS,−2.418
same,logFC PSD,NS,−1.027
same,logFC PSD2,NS,−1.447
same,logFC PTPRH,NS,−1.255
same,logFC PTPRN2,NS,−1.272
same,logFC PTPRR,NS,−1.517
same,logFC RAB3A,NS,−1.354
same,logFC RAB3C,NS,−1.236
same,logFC RAB6B,NS,−1.225
same,logFC RAB33A,NS,−1.51
same,logFC RAP1GAP,NS,−0.7191
same,logFC RASGEF1B,NS,−1.168
same,logFC RBFOX1,NS,−1.576
same,logFC RBFOX3,NS,−1.575
same,logFC RBP4,NS,−2.21
same,logFC RCAN2,NS,−1.602
same,logFC REM2,NS,−1.186
same,logFC RETREG2,NS,−0.5717
same,logFC RGR,NS,−2.072
same,logFC RGS7,NS,−1.689
same,logFC RHBDL3,NS,−1.325
same,logFC RHOBTB2,NS,−0.7317
same,logFC RIMS1,NS,−1.83
same,logFC RIT2,NS,−2.318
same,logFC RNF152,NS,−1.135
same,logFC RNF165,NS,−0.9556
same,logFC RPS6KA2,NS,−0.8831
same,logFC RTN1,NS,−1.456
same,logFC RUFY3,NS,−0.7072
same,logFC RUNDC3B,NS,−1.512
same,logFC RUNX1T1,NS,−1.916
same,logFC RXRG,NS,−1.776
same,logFC SAMD14,NS,−1.111
same,logFC SARM1,NS,−1.209
same,logFC SCAPER,NS,−0.7606
same,logFC SCG2,NS,−1.691
same,logFC SCG3,NS,−1.431
same,logFC SCN1A,NS,−1.947
same,logFC SCN2A,NS,−1.841
same,logFC SCN3B,NS,−1.722
same,logFC SCN7A,NS,−1.457
same,logFC SCN9A,NS,−1.803
same,logFC SEPTIN3,NS,−1.333
same,logFC SERP2,NS,−1.449
same,logFC SEZ6L,NS,−1.45
same,logFC SEZ6L2,NS,−0.7768
same,logFC SHANK1,NS,−1.292
same,logFC SHISAL1,NS,−1.498
same,logFC SHISAL2A,NS,−1.16
same,logFC SIDTI,NS,−2.103
same,logFC SIT1,NS,−1.927
same,logFC SLC4A8,NS,−0.8668
same,logFC SLC7A14,NS,−1.705
same,logFC SLC8A3,NS,−1.496
same,logFC SLC17A6,NS,−2.069
same,logFC SLC22A15,NS,−0.9589
same,logFC SLC22A23,NS,−1.148
same,logFC SLC37A1,NS,−1.052
same,logFC SLC38A4,NS,−1.273
same,logFC SLCO2B1,NS,−1.491
same,logFC SLCO5A1,NS,−1.211
same,logFC SLITRK1,NS,−1.312
same,logFC SMAP2,NS,−0.8196
same,logFC SMPD3,NS,−1.445
same,logFC SNAP91,NS,−1.605
same,logFC SNCB,NS,−1.524
same,logFC SNCG,NS,−1.396
same,logFC SNPH,NS,−1.134
same,logFC SNTG1,NS,−2.048
same,logFC SPNS2,NS,−1.211
same,logFC SPTBN4,NS,−1.122
same,logFC SRRM3,NS,−1.175
same,logFC SSTR2,NS,−1.449
same,logFC ST8SIA2,NS,−1.153
same,logFC STK32B,NS,−1.644
same,logFC STX1B,NS,−0.9907
same,logFC STXBP1,NS,−1.033
same,logFC SV2A,NS,−0.9341
same,logFC SYN1,NS,−1.543
same,logFC SYNGR1,NS,−0.8271
same,logFC SYP,NS,−1.709
same,logFC SYT1,NS,−1.058
same,logFC SYT7,NS,−1.505
same,logFC SYT13,NS,−1.444
same,logFC TAC1,NS,−1.101
same,logFC TAFA1,NS,−2.193
same,logFC TAGLN3,NS,−1.002
same,logFC TANC2,NS,−0.7278
same,logFC TBC1D24,NS,−0.8527
same,logFC TERF2IP,NS,−0.7455
same,logFC TH,NS,−1.664
same,logFC THRB,NS,−2.357
same,logFC TIMP2,NS,−0.878
same,logFC TLCD3B,NS,−1.431
same,logFC TMEM59L,NS,−0.8819
same,logFC TMEM121B,NS,−0.8958
same,logFC TMEM132B,NS,−1.025
same,logFC TMEM151A,NS,−1.522
same,logFC TMEM151B,NS,−1.463
same,logFC TMEM178A,NS,−0.904
same,logFC TMEM246,NS,−1.159
same,logFC TOM1L2,NS,−0.7199
same,logFC TP53I11,NS,−0.8407
same,logFC TP53INP2,NS,−1.177
same,logFC TPPP,NS,−1.04
same,logFC TRIB2,NS,−0.7077
same,logFC TRIM9,NS,−1.352
same,logFC TSPAN7,NS,−1.098
same,logFC TSPYL5,NS,−1.843
same,logFC TTBK1,NS,−1.374
same,logFC TUBB2B,NS,−0.7583
same,logFC TVP23A,NS,−1.064
same,logFC VPS26B,NS,−0.6245
same,logFC VSTM2A,NS,−1.971
same,logFC VWA5B2,NS,−1.111
same,logFC VXN,NS,−1.527
same,logFC WDR47,NS,−0.8343
same,logFC WDR82,NS,−0.4862
same,logFC WNK2,NS,−0.7608
same,logFC WSB2,NS,−0.8644
same,logFC ZC3HAV1L,NS,−2.186
same,logFC ZDHHC22,NS,−1.455
same,logFC ZFP3,NS,−1.933
same,logFC ZNF385A,NS,−0.8795
same,logFC ZNF439,NS,−2.201
same,logFC ABCC6,p<0.01,−0.5461
same,logFC ADAMTS4,p<0.01,−0.723
same,logFC ADAMTS8,p<0.01,−1.658
same,logFC ADAMTS15,p<0.01,−1.743
same,logFC ADAMTSL1,p<0.01,−1.46
same,logFC ADAMTSL2,p<0.01,−1.833
same,logFC ALDOC,p<0.01,−0.6635
same,logFC APOL2,p<0.01,−0.6452
same,logFC AQP6,p<0.01,−1.137
same,logFC ARHGAP23,p<0.01,−0.5891
same,logFC ARHGEF28,p<0.01,−0.916
same,logFC ARL17B,p<0.01,−1.232
same,logFC ASPN,p<0.01,−3.695
same,logFC BDKRB2,p<0.01,−1.475
same,logFC C1R,p<0.01,−1.32
same,logFC C5orf63,p<0.01,−1.211
same,logFC CABP7,p<0.01,−1.06
same,logFC CACNA1H,p<0.01,−0.5137
same,logFC CCDC183,p<0.01,−0.5281
same,logFC CCDC187,p<0.01,−1.023
same,logFC CCER2,p<0.01,−0.8431
same,logFC CD151,p<0.01,−0.4377
same,logFC CDKN1C,p<0.01,−0.6211
same,logFC CEMIP,p<0.01,−2.321
same,logFC CHST8,p<0.01,−1.474
same,logFC COL1A1,p<0.01,−1.88
same,logFC COL6A1,p<0.01,−0.5639
same,logFC COL8A2,p<0.01,−2.755
same,logFC COL15A1,p<0.01,−2.224
same,logFC CPA4,p<0.01,−2.791
same,logFC CPNE5,p<0.01,−0.937
same,logFC CXCL2,p<0.01,−1.783
same,logFC CXCL6,p<0.01,−2.412
same,logFC CXCL8,p<0.01,−3.086
same,logFC DHRS3,p<0.01,−1.126
same,logFC DRGX,p<0.01,−4.337
same,logFC DYRK1B,p<0.01,−0.3984
same,logFC EFEMP2,p<0.01,−0.7929
same,logFC EGFLAM,p<0.01,−1.798
same,logFC ELN,p<0.01,−2.048
same,logFC EPHB3,p<0.01,−0.4956
same,logFC EYA2,p<0.01,−0.955
same,logFC FAM20C,p<0.01,−0.6923
same,logFC FBLN5,p<0.01,−1.918
same,logFC FMOD,p<0.01,−2.269
same,logFC FNDC5,p<0.01,−0.7008
same,logFC FRMPD1,p<0.01,−2.303
same,logFC GAA,p<0.01,−0.4856
same,logFC GALNT14,p<0.01,−1.152
same,logFC GLIS2,p<0.01,−0.5025
same,logFC GPBAR1,p<0.01,−0.9131
same,logFC HCN1,p<0.01,−2.181
same,logFC HES6,p<0.01,−1.04
same,logFC HMX1,p<0.01,−1.478
same,logFC HOXB5,p<0.01,−2.739
same,logFC HS3ST2,p<0.01,−1.228
same,logFC HS6ST1,p<0.01,−0.6264
same,logFC IAH1,p<0.01,−0.789
same,logFC IGFBP5,p<0.01,−0.9814
same,logFC IL17RC,p<0.01,−0.5333
same,logFC INHBB,p<0.01,−1.748
same,logFC INMT,p<0.01,−1.061
same,logFC IRF2BPL,p<0.01,−0.3835
same,logFC ISLR,p<0.01,−1.646
same,logFC ITPRIP,p<0.01,−0.5931
same,logFC JOSD2,p<0.01,−0.7377
same,logFC KCNA1,p<0.01,−3.416
same,logFC KCNJ5,p<0.01,−1.028
same,logFC KDM4B,p<0.01,−0.331
same,logFC KHDC1,p<0.01,−0.7724
same,logFC KIF26A,p<0.01,−0.5135
same,logFC KLHL35,p<0.01,−1.144
same,logFC LGALS3BP,p<0.01,−0.9602
same,logFC LOXL1,p<0.01,−0.6236
same,logFC LRFN5,p<0.01,−0.6816
same,logFC LURAP1L,p<0.01,−1.086
same,logFC LYPD1,p<0.01,−0.7703
same,logFC MAB21L2,p<0.01,−0.9329
same,logFC MAFB,p<0.01,−0.573
same,logFC MCC,p<0.01,−0.8548
same,logFC MGP,p<0.01,−2.67
same,logFC MKX,p<0.01,−1.878
same,logFC MX2,p<0.01,−1.618
same,logFC NDUFA4L2,p<0.01,−0.8379
same,logFC NFIX,p<0.01,−2.446
same,logFC NNMT,p<0.01,−2.326
same,logFC NPR2,p<0.01,−0.5942
same,logFC NTNG2,p<0.01,−1.161
same,logFC OGFR,p<0.01,−0.318
same,logFC OLFML2B,p<0.01,−1.03
same,logFC OPRK1,p<0.01,−0.939
same,logFC OPRM1,p<0.01,−1.985
same,logFC OPTN,p<0.01,−0.44
same,logFC OTOG,p<0.01,−1.855
same,logFC P4HA3,p<0.01,−2.239
same,logFC PADI2,p<0.01,−1.485
same,logFC PALM,p<0.01,−0.581
same,logFC PARP10,p<0.01,−1.041
same,logFC PENK,p<0.01,−1.977
same,logFC PHOX2B,p<0.01,−2.192
same,logFC PIEZO2,p<0.01,−2.464
same,logFC PIRT,p<0.01,−3.199
same,logFC PLAC9,p<0.01,−1.585
